Assay results from patent publication US10377741B2, “Substituted heteroaryl aldehyde compounds and methods for their use in increasing tissue oxygenation” (Global Blood Therapeutics, Inc., priority 2011, dated 2019).

Key:
[1] = molecular target: T1, purified Hemoglobin S (HbS) (Homo sapiens, UniProt P68871+P69905, E7V); experiment: Modulation of hemoglobin oxygen affinity: oxygen equilibrium curves (HEMOX) in purified HbS; format: biochemical, human (homozygous sickle cell patients); settings: compound at 30 μM; 25 μM purified HbS, 45 min at 37° C.
T1 construct: HbS was purified by a modified procedure; from tissue; host or cells: blood of homozygous sickle cell patients (CHORI); for the polymerization assay purified by the CRO VIRUSYS
Outline: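 HbS from homozygous sickle cell patient blood, 25 μM in HEMOX buffer pH 7.4, incubated 45 min at 37° C with compound (30 μM unless noted). Air-saturated then deoxygenated with N2; p50 from Hill fit; delta p50% = (control p50 − treated p50)/control p50 × 100.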

[2] = molecular target: T2, purified HBS (Homo sapiens, UniProt P68871+P69905, E7V); experiment: Polymerization assay (delay time of HbS polymerization); format: biochemical, human (homozygous sickle cell patients); settings: percent delay (% DT) vs HBS alone; 50 μM purified HBS, 1.8 M potassium phosphate pH 7.4
T2 construct: HbS was purified by a modified procedure; from tissue; host or cells: blood of homozygous sickle cell patients (CHORI); for the polymerization assay purified by the CRO VIRUSYS
Method: Polymerization assays are carried out in vitro using purified HBS exchanged into 1.8 M potassium phosphate buffer at pH 7.4. Using a slightly modified protocol (Antonini and Brunori, 1971), HbS is purified by the CRO VIRUSYS, from blood obtained from homozygous sickle cell patients through the Hemoglobinopathy Center at Children's Hospital Oakland Research Institute (CHORI) with Institutional Review Board approval. Compounds are prepared in 100% DMSO and a desired amount is added to 50 μM of purified HBS at a final DMSO concentration of 0.3%. Final potassium phosphate concentration is adjusted to 1.8 M using a combination of 2.5 M potassium phosphate stock solution and water at pH 7.4. The reaction mixture is incubated for an hour at 37° C. and then transferred into a 24-well plate for deoxygenation in a glove box containing 99.5% nitrogen and 0.5% oxygen. The 24-well plate is not covered and incubated at 4° C. on a plate cooler inside the glove box for one and a half hours. Fifty μL of the reaction mixture is transferred into a 96-well plate and the absorbance at 700 nm is measured every minute for one hour at 37° C. in a plate reader located inside the glove box. A plot of the absorbance against time is fitted using a Boltzman sigmoidal fit and the delay time (from zero to time at half Vmax) is measured. To compare and rank compounds, delay times are expressed as percent delay (% DT), which is defined as the difference in delay times for HBS/compound and HBS alone multiplied by 100 and divided by the delay time for HBS alone.
Compounds listed below have been tested in the polymerization assay. Activity ranges are defined by the number of dagger (†) symbols indicated. † denotes activity ≥40% but ≤80%; †† denotes activity >80% but ≤120%; ††† denotes activity >120% but ≤140%; †††† denotes activity >160%.

[3] = test system: whole blood; experiment: Whole blood assay: oxygen equilibrium curves of whole blood; format: cell-based, human (homozygous sickle cell patients); settings: compound at 1000 μM; hematocrit 20%, 1 hour at 37° C.
Method: Oxygen Equilibrium Curves (OEC) of whole blood before and after treatment with different concentrations of substituted benzaldehyde compounds were performed as follows using a HEMOX analyzer (TCS Scientific, New Hope, Pa.). Blood samples from homozygous sickle cell patients were obtained though the Hemoglobinopathy Center at Children's Hospital Oakland Research Institute (CHORI) with Institutional Review Board approval. The hematocrit was adjusted to 20% using autologous plasma and the blood samples were incubated for 1 hour at 37° C. in absence or presence of compounds. 100 μl of these samples were added to 5 mL of Hemox buffer (30 mM TES, 130 mM NaCl, 5 mM KCl, pH=7.4) at 37° C. and then transferred to the Hemox sample chamber. The samples were saturated with oxygen by flushing with compressed air for 10 minutes. The samples were then flushed with pure nitrogen and the respective absorbances of oxy- and deoxy-Hb are recorded as a function of the solution pO2. The oxygen equilibrium data were then fitted to the Hill Model to obtain values for p50. The deoxygenation curves for both whole blood alone (control) and whole blood in the presence of the compound were collected with the TCS software.
Table 5 below lists the delta p50% values where + indicates a delta p50% of between 0 and 29, ++ indicates a delta p50% of between 30 and 50, and +++ indicates a delta p50% of 50 or greater. Unless noted otherwise, the compounds in Table 2 were tested at 1000 μM.

[4] = molecular target: T3, HbS/A (Homo sapiens, UniProt P68871+P69905, E7V); experiment: R/T assay (relaxed-to-tense transition under deoxygenated conditions); format: biochemical, human (homozygous sickle cell patients); settings: 3 μM HbS/A, % R remaining vs no treatment
T3 construct: A mixture of HbS/A was purified from blood; from tissue; host or cells: blood of homozygous sickle cell patients (CHORI)
Method: A relaxed-to-tense transition assay (“R/T assay”) was used to determine the ability of substituted benzaldehyde compounds to maintain the high-oxygen affinity relaxed (R) state of hemoglobin under deoxygenated conditions. This ability can be expressed as a “delta R” value (i.e., the change in the time-period of the R state after hemoglobin is treated with a compound, as compared to the period without treatment with the compound). Delta R is the % R to remaining after the compounds treatment compared with no treatment (e.g. if R % without treatment is 8% while with treatment with a target compound is 48% R at 30 μM, then % R is 40% for that compound.
A mixture of HbS/A was purified from blood obtained from homozygous sickle cell patients though the Hemoglobinopathy Center at Children's Hospital Oakland Research Institute (CHORI) with Institutional Review Board approval. HbS/A (at a final concentration of 3 μM) was incubated for 1 hr at 37° C. in presence or absence of compounds in […] potassium phosphate buffer, pH=7.4 and 30 μM 2, 3 diphosphoglycerate (DPG) in 96 well plates in a final volume of 160 μl. Compounds were added at different concentrations (3 μM to 100 μM final concentrations). Plates were covered with a Mylar film. After incubation was completed the Mylar cover was removed and the plates were placed in a Spectrostar Nano plate reader previously heated at 37° C. Five minutes later, N2 (flow rate=20 L/min) was flowed through the spectrophotometer. Spectroscopic measurements (300 nm to 700 nm) were taken every 5 min for 2 hours. Data analysis was performed by using linear regression from the data retrieved for all wavelengths.
Table 4 below lists the delta R values where + indicates a delta R of between 0 and 30, ++ indicates a delta R of between 30 and 50, and +++ indicates a delta R of 50 or greater. Unless noted otherwise, the compounds in Table 2 were tested at 30 μM.

| SMILES | delta p50% [1] | % delta Delay [2] | delta p50% Values for Whole Blood Assay [3] | delta R ([4]; compound at 30 μM) | delta R ([4]; compound at 9 μM) |
| --- | --- | --- | --- | --- | --- |
| COc1cc(C=O)c(OCc2cccn3ccnc23)cn1 [Compound 5] | ++ (a delta p50% of between 30 and 50) | † (activity ≥40% but ≤80%) | + (a delta p50% of between 0 and 29) | ++ (a delta R of between 30 and 50) | – |
| COc1cc(C=O)c(OCc2cccnc2-c2ccn(C)n2)cn1 [Compound 130, 2-methoxy-5-((2-(1-methyl-1H-pyrazol-3-yl)pyridin-3-yl)methoxy)isonicotinaldehyde] | ++ (a delta p50% of between 30 and 50) | † (activity ≥40% but ≤80%) | ++ (a delta p50% of between 30 and 50) | – | + (a delta R of between 0 and 30) |
| CCn1nccc1-c1ncccc1COc1cnc(OC)cc1C=O [Compound 149, 5-((2-(1-ethyl-1H-pyrazol-5-yl)pyridin-3-yl)methoxy)-2-methoxyisonicotinaldehyde] | +++ (a delta p50% of 50 or greater) | † (activity ≥40% but ≤80%) | +++ (a delta p50% of 50 or greater) | – | + (a delta R of between 0 and 30) |
| COc1cc(C=O)c(OCc2cccnc2-c2ccnn2C(C)C)cn1 [Compound 150] | +++ (a delta p50% of 50 or greater) | ††† (activity >120% but ≤140%) | +++ (a delta p50% of 50 or greater) | +++ (a delta R of 50 or greater) | – |
| COc1cc(C=O)c(OCc2cccnc2C(C)(C)O)cn1 [Compound 183, 5-((2-(2-hydroxypropan-2-yl)pyridin-3-yl)methoxy)-2-methoxyisonicotinaldehyde] | +++ (a delta p50% of 50 or greater) | – | +++ (a delta p50% of 50 or greater) | ++ (a delta R of between 30 and 50) | – |
| COCCOc1cc(C=O)c(OCc2cccnc2-c2ccnn2C)cn1 [Compound 184, 2-(2-methoxyethoxy)-5-((2-(1-methyl-1H-pyrazol-5-yl)pyridin-3-yl)methoxy)isonicotinaldehyde] | ++ (a delta p50% of between 30 and 50) | – | +++ (a delta p50% of 50 or greater) | ++ (a delta R of between 30 and 50) | – |
| COc1cncc(OCc2cccnc2-c2ccnn2C(C)C)c1C=O [Compound 188, 3-((2-(1-isopropyl-1H-pyrazol-5-yl)pyridin-3-yl)methoxy)-5-methoxyisonicotinaldehyde] | +++ (a delta p50% of 50 or greater) | ††† (activity >120% but ≤140%) | +++ (a delta p50% of 50 or greater) | – | – |
| COc1cc(C=O)c(OCc2cccnc2-c2ncnn2C(C)C)cn1 [Compound 189, 5-((2-(2-isopropyl-2H-1,2,4-triazol-3-yl)pyridin-3-yl)methoxy)-2-methoxyisonicotinaldehyde] | ++ (a delta p50% of between 30 and 50) | ††† (activity >120% but ≤140%) | +++ (a delta p50% of 50 or greater) | – | – |
| COc1cc(C=O)c(OCc2cccnc2-c2c(C)cnn2C(C)C)cn1 [Compound 190, 5-((2-(1-isopropyl-4-methyl-1H-pyrazol-5-yl)pyridin-3-yl)methoxy)-2-methoxyisonicotinaldehyde] | +++ (a delta p50% of 50 or greater) | ††† (activity >120% but ≤140%) | +++ (a delta p50% of 50 or greater) | – | – |
| COc1cc(C=O)c(OCc2cccnc2-c2ccnn2CCO)cn1 [Compound 191, 5-((2-(1-(2-hydroxyethyl)-1H-pyrazol-5-yl)pyridin-3-yl)methoxy)-2-methoxyisonicotinaldehyde] | +++ (a delta p50% of 50 or greater) | – | +++ (a delta p50% of 50 or greater) | – | + (a delta R of between 0 and 30) |
| Cc1cn[nH]c1-c1ncccc1COc1c[nH]c(=O)cc1C=O [Compound 194, 5-((2-(4-methyl-1H-pyrazol-5-yl)pyridin-3-yl)methoxy)-2-oxo-1,2-dihydropyridine-4-carbaldehyde] | ++ (a delta p50% of between 30 and 50) | – | + (a delta p50% of between 0 and 29) | – | + (a delta R of between 0 and 30) |
| COc1cc(C=O)c(OCc2cccnc2-c2ccnn2C2CCCCC2)cn1 [Compound 196, 5-((2-(1-cyclohexyl-1H-pyrazol-5-yl)pyridin-3-yl)methoxy)-2-methoxyisonicotinaldehyde] | +++ (a delta p50% of 50 or greater) | – | ++ (a delta p50% of between 30 and 50) | ++ (a delta R of between 30 and 50) | – |
| COC(=O)CCn1nccc1-c1ncccc1COc1cnc(OC)cc1C=O [Compound 200, methyl 3-(5-(3-(((4-formyl-6-methoxypyridin-3-yl)oxy)methyl)pyridin-2-yl)-1H-pyrazol-1-yl)propanoate] | ++ (a delta p50% of between 30 and 50) | – | +++ (a delta p50% of 50 or greater) | – | + (a delta R of between 0 and 30) |
| COc1cc(C=O)c(OCc2cccnc2-c2ccn(CCC(=O)O)n2)cn1 [Compound 201, 3-(3-(3-((4-formyl-6-methoxypyridin-3-yloxy)methyl)pyridin-2-yl)-1H-pyrazol-1-yl)propanoic acid] | ++ (a delta p50% of between 30 and 50) | – | + (a delta p50% of between 0 and 29) | – | + (a delta R of between 0 and 30) |
| COc1cc(C=O)c(OCc2cccc(C(=O)O)c2)cn1 [Compound 203, 3-(((4-formyl-6-methoxypyridin-3-yl)oxy)methyl)benzoic acid] | +++ (a delta p50% of 50 or greater) | †† (activity >80% but ≤120%) | – | – | + (a delta R of between 0 and 30) |
